For data set [1] the following is noted: rat, in vivo, po, 100 mg/kg, 4 h.
Method: (§2) Each compound of the present invention was dissolved in distilled water for injection and orally administered to rats (Lewis strain line, male, body weight: about 200 g) at a dose of 100mg/kg. From 30 minutes to 4 hours after the administration, a series of blood chronologically collected from rat fundus oculi were centrifuged (3000rpm for 10 minutes at 4°C) to give plasma samples. Each plasma sample (200 µl) was filtered through an ultrafiltration membrane by centrifugation at 1500 x G for 3 minutes using a micropartition UF unit (Centrifree-MPS-3: 30,000 MW cut-off, Amicon Corp., Beverly, MA). […] The reaction was stopped by adding 900 µl of 3% aqueous acetic acid to the reaction mixture. The fluorescence of the resulting solution was read using an excitation wavelength of 325 nm and an emission wavelength of 393 nm. The concentration of each test compound in rat plasma samples was calculated using a standard curve which was prepared based on a variety of doses.
A short description of data set [2]: Assay for Oral Absorption in Rat (plasma level by MMP-3 inhibition bioassay). The settings on record: for AUC: male, Lewis.
Method: as §2
Data set [3] deals with human fibroblast stromelysin (Homo sapiens, UniProt P08254). Briefly: Assay for inhibition of stromelysin (fluorescein-labeled casein substrate). In kind it is biochemical. Here is the method:
(§1) Described below are assays for biological activities of the compounds according to the present invention, formulations, dosage forms and dosage levels thereof, and miscellaneous matters. The efficacy of the compounds represented by the formula (I) according to the present invention as inhibitors of human fibroblast collagenase (metalloproteinase involved in the breakdown of tissues) is determined by a procedure based on the method of Y. Murawaki et al., Journal of Hepatology, 18, p328-334 (1993). The efficacy of the compounds (I) of this invention as inhibitors of human fibroblast stromelysin is determined by a procedure based on the method of S. S. Twining, Anal. Biochem., 143, p30 (1984). The assay results obtained are shown hereinbelow, together with biological examples which illustrate embodiments of the assay protocols.
The efficacy of compounds of the present invention to act as inhibitors of human fibroblast stromelysin was determined by the procedure of Twining (Anal. Biochem., 143, p.30, 1984), compared with a reference compound.
Prostromelysin was activated by incubation with 20 µg/ml human plasmin at 37°C for 2 hours, and the reaction was stopped by addition of 2.8 mg/ml aqueous diisopropyl fluorophosphate. The inhibition was assayed using, as a substrate, fluorescein-labeled casein. To a solution of the substrate (1 mg/ml) in a 50 mM Tris-HCl buffer, pH 7.8, containing 10mM aqueous calcium chloride was added the activated stromelysin. The resultant solution was incubated at 37°C for 2 hours. The digestion of the substrate with the enzyme was stopped by addition of 5% trichloroacetic acid. Undigested substrates were precipitated by centrifugation at 3000 x g for 20 minutes. The supernatant was collected, followd by additon of a 0.5M Tris-HCl buffer, pH 8.5. The fluorescence was read using an excitation wavelength of 495 nm and an emission wavelength of 520 nm. The inhibitory potency of the compounds was calculated. […] The resulting assay data for representative examples are shown in Table 2, compared with the reference compound.

For a further data set, the target named is TNF-α Convertase (Homo sapiens, UniProt P78536). Briefly: Assay for inhibition of TNF-α production in LPS-stimulated, PMA-differentiated U937 cells.
TNF-α Convertase, sequence (P78536 215-824): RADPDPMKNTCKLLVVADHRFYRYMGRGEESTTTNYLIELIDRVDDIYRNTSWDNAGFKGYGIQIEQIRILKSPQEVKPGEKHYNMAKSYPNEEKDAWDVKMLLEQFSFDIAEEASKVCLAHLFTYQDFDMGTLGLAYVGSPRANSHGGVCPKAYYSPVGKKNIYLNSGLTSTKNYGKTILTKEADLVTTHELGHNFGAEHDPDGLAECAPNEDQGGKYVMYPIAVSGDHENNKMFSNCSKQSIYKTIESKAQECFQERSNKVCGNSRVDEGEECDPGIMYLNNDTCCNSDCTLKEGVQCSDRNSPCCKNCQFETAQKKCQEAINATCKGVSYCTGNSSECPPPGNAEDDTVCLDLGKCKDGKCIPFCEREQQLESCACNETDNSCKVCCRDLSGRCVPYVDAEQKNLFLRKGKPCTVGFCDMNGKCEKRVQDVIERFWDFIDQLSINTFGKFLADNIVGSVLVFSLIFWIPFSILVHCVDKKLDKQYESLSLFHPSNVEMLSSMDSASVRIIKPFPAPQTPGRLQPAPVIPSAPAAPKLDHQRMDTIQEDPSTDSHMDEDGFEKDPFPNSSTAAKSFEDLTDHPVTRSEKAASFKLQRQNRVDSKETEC
A further data set in a line: in vivo. The settings on record: rat, po, 100 mg/kg.
Data set [4] addresses T1, human fibroblast collagenase (Homo sapiens, UniProt P03956).
T1 sequence (P03956 100-469): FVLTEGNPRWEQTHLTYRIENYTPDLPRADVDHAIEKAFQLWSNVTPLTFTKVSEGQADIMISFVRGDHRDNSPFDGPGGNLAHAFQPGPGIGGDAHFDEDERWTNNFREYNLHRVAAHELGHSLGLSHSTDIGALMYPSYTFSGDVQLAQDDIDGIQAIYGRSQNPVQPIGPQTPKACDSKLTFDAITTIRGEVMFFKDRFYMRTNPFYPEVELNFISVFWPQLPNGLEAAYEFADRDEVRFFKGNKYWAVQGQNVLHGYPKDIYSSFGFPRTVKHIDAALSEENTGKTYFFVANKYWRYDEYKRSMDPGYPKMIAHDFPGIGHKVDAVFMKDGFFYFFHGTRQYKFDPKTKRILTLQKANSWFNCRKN
Briefly: Assay for inhibition of collagenase (fluorescein-labeled bovine type I collagen substrate). The settings on record: activated human fibroblast procollagenase, 35°C, 2 hours, pH 7.5; read-out: Inhibition of MMP-1. In kind it is biochemical. Here is the method: as §1
The efficacy of compounds of the present invention to act as inhibitors of human fibroblast collagenase was determined by the procedure of Y. Murawaki et al. (Journal of Hepatology, 18, p.328-334, 1993), compared with a reference compound.
Procollagenase was activated by incubation with 2 mM 4-aminophenylmercuric acetate (APMA) at 35°C for 2 hours. The inhibition was assayed using, as a substrate, fluorescein-labeled bovine type I collagen. To a solution of the substrate (0.5 mg/ml) in a 50 mM Tris-HCl buffer, pH 7.5, containing 0.4M aqueous sodium chloride and 10 mM aqueous […] was added the activated collagenase. The resultant solution was incubated at 35°C for 2 hours. The digestion of the substrate with the enzyme was stopped by addition of 80 mM o-phenanthroline, followed by addition of a porcine elastase solution formed by dissolving 25 µg/ml porcine elastase in the aforementioned Tris-HCl buffer. The mixture was incubated at 37°C for 10 minutes. To the resulting solution was added 70% ethanol, and a 170 mM Tris-HCl buffer, pH 9.5, containing 0.67M aqueous sodium chloride. Undigested substrates were precipitated by centrifugation at 3000 x g for 20 minutes. The supernatant was collected and the fluorescence was read using an excitation wavelength of 495 nm and an emission wavelength of 520 nm. The inhibitory potency of the compounds was calculated. […] The resulting assay data for representative examples are shown in Table 1, compared with the reference compound. […]

The mark [5] stands for this setting: plasmin-activated human fibroblast prostromelysin, 37°C, 2 hours, pH 7.8, read-out: Inhibition of MMP-3.

One may read the AUC as concentration integrated over time. A low value points to less exposure.

Like-named read-outs stand apart in the source and are kept apart here.

human fibroblast stromelysin, sequence (P08254 100-477): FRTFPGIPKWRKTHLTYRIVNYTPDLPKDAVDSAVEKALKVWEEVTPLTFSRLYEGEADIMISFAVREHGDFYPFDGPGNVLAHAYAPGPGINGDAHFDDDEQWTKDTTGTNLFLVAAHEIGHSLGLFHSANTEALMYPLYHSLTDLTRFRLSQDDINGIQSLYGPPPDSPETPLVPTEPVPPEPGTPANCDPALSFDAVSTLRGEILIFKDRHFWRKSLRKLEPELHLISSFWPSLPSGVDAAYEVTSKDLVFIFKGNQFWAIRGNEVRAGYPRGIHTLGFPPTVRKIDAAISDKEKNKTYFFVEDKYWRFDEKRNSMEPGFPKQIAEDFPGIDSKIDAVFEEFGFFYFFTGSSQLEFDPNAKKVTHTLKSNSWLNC
Method for TNF-α Convertase: Human monocytic leukemia cell line U937 (human histiocytic lymphoma cell line U937) cells were cultured in RPMI 1640 (Nissui Pharmaceutical Co., Ltd., Japan) supplemented with 5% fetal calf serum (FCS; IBL, Japan) in an incubator at 37°C under 5% CO2, then transferred to multiplates at a density of 1 x 10^6 cells/1 ml/well, and incubated overnight in the presence of 10^-7 M phorbol 12-myristate 13-acetate (Wako Pure Chemical Industries, Ltd., Japan) to form differentiated macrophage-like cells. To the resultant cells was added E. coli O127:B8 lipopolysaccaride (LPS, 0.1 µg/ml; Sigma) alone or along with each compound of the present invention, and the treated cells were then incubated for 6 hours in an incubator under 5% CO2 at 37°C. After the incubation, the cultures were collected and centrifuged at 3000 rpm for 10 minutes to give supernatants which were diluted with purified water and then assayed using a TNF-α assay kit, Genzyme (Table 3).
Method for in vivo: as §2

`CC(=N)NCCCC[C@H](NC(=O)[C@H](CC(C)C)C(C)C(=O)NO)C(=O)NC(C)CO.CC(=O)O` (mixture of isomers) [Compound No. 39, N^a-[4-(Hydroxyamino)-2(R)-isobutyl-3(RS)-methylsuccinyl]-N^e-acetimidoyl-L-lysine N-[2-hydroxy-1(RS)-methylethyl]amide · 1 acetate] showed an AUC0.5-4 in data set [1] of 14.996 µg·h/mL.

`CC(=O)O.CCC(=N)NCCCC[C@H](NC(=O)[C@H](CC(C)C)C(C)C(=O)NO)C(=O)NC` (mixture of isomers) [Compound No. 45, N^a-[4-(Hydroxyamino)-2(R)-isobutyl-3(RS)-methylsuccinyl]-N^e-propionimidoyl-L-lysine N-methylamide · 1 acetate]: the AUC0.5-4 in data set [2] (rats (Lewis, male), orally, 100mg/kg, 0.5 to 4 hours after administration) came to 7.067 µg·h/mL.

As to `CNC(=O)C(Cc1ccc(CNC(C)=N)cc1)NC(=O)C(CC(C)C)C(C)C(=O)NO` (single isomer, unassigned) [Compound No. 41, N^a-[4-(Hydroxyamino)-2(R)-isobutyl-3(R or S)-methylsuccinyl]-4'-acetimidoyliminomethyl-L-phenylalanine N-methylamide · 1 acetate], the IC50 was found to be 0.018 µM in data set [3] (setting [5]) and 1.01 µM on TNF-α Convertase. For the same molecule, the AUC in data set [2] (rat, po, 100 mg/kg) amounted to 3.13 µg·h/mL.

As to `CC(=N)NCc1ccc(CC(NC(=O)C(CC(C)C)C(C)C(=O)NO)C(=O)NN2CCOCC2)cc1` (single isomer, unassigned) [Compound No. 42, N^a-[4-(Hydroxyamino)-2(R)-isobutyl-3(R or S)-methylsuccinyl]-4'-acetimidoyliminomethyl-L-phenylalanine N-(morpholin-4-yl)-amide · 1 acetate], the IC50 in data set [3] (setting [5]) came out at 0.024 µM. In data set [2] (rat, po, 100 mg/kg), this molecule yielded an AUC of 6.25 µg·h/mL.

Consider `CC(=O)O.CC(=O)O.CNC(=O)[C@H](CCCN)NC(=O)[C@H](CC(C)C)C(Cc1ccc(CN)cc1)C(=O)NO` (single isomer, unassigned) [Compound No. 48, N^a-[4-(Hydroxyamino)-2(R)-isobutyl-3(R or S)-(p-aminomethylbentyl)succinyl]-L-ornithine N-methylamide· 2 acetate], for which the AUC0.5-4 in data set [1] turned out to be 20.203 µg·h/mL.

As to `CC(=O)O.CC(=O)O.CNC(=O)[C@H](Cc1ccc(CN)cc1)NC(=O)[C@H](CC(C)C)C(Cc1ccc(CN)cc1)C(=O)NO` (single isomer, unassigned) [Compound No. 49, N^a-[4-(Hydroxyamino)-2(R)-isobutyl-3(R or S)-(p-aminomethylbenzyl)succinyl]-4'-aminomethyl-L-phenylalanine N-methylamide · 2 acetate], the AUC0.5-4 in data set [1] amounted to 15.292 µg·h/mL.

`CC(=O)O.CNC(=O)[C@H](C)NC(=O)[C@H](CC(C)C)C(Cc1cccc(CN)c1)C(=O)NO` (single isomer, unassigned) [Compound No. 53, N^a-[4-(Hydroxyamino)-2(R)-isobutyl-3(R or S)-(m-aminomethylbenzyl)succinyl]-L-alanine N-methylamide · 1 acetate]: the AUC0.5-4 in data set [1] is 4.816 µg·h/mL.

For `CNC(=O)[C@H](CCCCN)NC(=O)[C@H](C(C)C)C(CCCc1ccccc1)C(=O)NO` (single isomer, unassigned) [Compound No. 74, N^a-[4-(Hydroxyamino)-2(R)-isopropyl-3(R or S)-(3-phenylpropyl)succinyl]-L-lysine N-methylamide· 1 acetate], the IC50 turned out to be 0.062 µM in data set [3] (read-out: Inhibition of MMP-3, plasmin-activated human fibroblast prostromelysin, 37°C, 2 hours, pH 7.8) and 0.603 µM at TNF-α Convertase (read-out: Inhibition of TACE, U937 cells, LPS 0.1 µg/ml, 6 hours, TNF-α in supernatant by assay kit). The AUC at 4 h in the data set “in vivo” is 9.03 µg·h/mL.

In turn, `CNC(=O)C(CCCCNC(C)=N)NC(=O)C(CC(C)C)C(C)C(=O)NO` [Compound No. 22, N^a-[4-(Hydroxyamino)-2(R)-isobutyl-3(RS)-methylsuccinyl]-N^e-acetimidoyl-L-lysine N-methylamide · 1 acetate] displayed an AUC at 4 h in data set [2] (rat, po, 100 mg/kg) of 9.13 µg·h/mL. Besides, at TNF-α Convertase, the IC50 stood at 2.08 µM.

With `CNC(=O)C(Cc1ccc(CN)cc1)NC(=O)C(CC(C)C)C(C)C(=O)NO` [Compound No. 23, N^a-[4-(Hydroxyamino)-2(R)-isobutyl-3(RS)-methylsuccinyl]-4'-aminomethyl-L-phenylalanine N-methylamide · 1 acetate], the figures for the IC50 (in data set [3]; against TNF-α Convertase) were 0.016 µM and 1.19 µM, respectively. The AUC at 4 h in “in vivo” was found to be 4.76 µg·h/mL.

As to `CC(=O)O.CNC(=O)[C@H](Cc1ccc(CNC(C)=N)cc1)NC(=O)[C@H](CC(C)C)[C@H](O)C(=O)NO` [Compound No. 43, N^a-[4-(Hydroxyamino)-2(R)-isobutyl-3(S)-hydroxysuccinyl]-4'-acetimidoyliminomethyl-L-phenylalanine N-methylamide · 1 acetate], the AUC0.5-4 in data set [1] amounted to 3.289 µg·h/mL.

For `CC(=N)NCCCCC(NC(=O)C(CC(C)C)C(CCCc1ccccc1)C(=O)NO)C(=O)NCCN(C)C` [Compound No. 44, N^a-[4-(Hydroxyamino)-2(R)-isobutyl-3(RS)-(3-phenylpropyl)-succinyl]-N^e-acetimidoyl-L-lysine N-(2-N',N'-dimethylaminoethyl)amide · 2 acetate], the IC50 in data set [3] was determined as 0.017 µM; on TNF-α Convertase, 0.129 µM. For the same molecule, the AUC at 4 h in the data set “in vivo” was determined as 1.93 µg·h/mL.

Consider `CNC(=O)C(CCCN)NC(=O)C(CC(C)C)C(CCCc1ccc(NC(=N)N)cc1)C(=O)NO` [Compound No. 46, N^a-[4-(Hydroxyamino)-2(R)-isobutyl-3(RS)-[3-(4'-guanidinophenyl)propyl]succinyl]-L-ornithine-N-methylamide · 2 acetate], for which the IC50 in data set [4] was found to be 0.015 µM; in data set [3] (setting [5]) it was 0.042 µM; against TNF-α Convertase it was 0.46 µM. Further, the AUC in data set [2] (rat, po, 100 mg/kg) came to 3.38 µg·h/mL.

In data set [1], “N^a-[4-(Hydroxyamino)-2(R)-isobutyl-3(R or S)-[5-(isopropylimino)pentyl]succinyl]-L-alanine N-methylamide [Compound No. 63]” gave an AUC0.5-4 of 5.662 µg·h/mL.
